Patent US20170240535A1, “HDAC1/2 INHIBITORS FOR THE TREATMENT OF NEURODEGENERATIVE AND/OR COGNITIVE DISORDERS” (Regenacy Pharmaceuticals, LLC, priority 2016, published 2017)

Experiments:
[1] = Pharmacokinetics in plasma and brain after IV administration; assay type: in vivo; details: IV 1 mg/kg, male C57BL/6 mice; for Kp / Cmax / Tmax / half-life / AUC(0-inf) / AUC(0-t) / MRT inf / clearance / Vd: mouse; for Kp: brain/plasma, read-out: AUCbrain/AUCplasma; for Vd: read-out: Vss
Experimental: Male C57Bl/6 mice were fasted overnight. Compounds of the invention were dissolved in dimethyl acetamide at 10 times the final concentration, then Solutol HS 15 (BASF) was added to a final concentration of 10%. Finally 80% saline was added and vortexed to achieve a clear solution. Fifteen animals were injected via the tail vein with 1 mg/kg compound. Blood was collected via retro orbital puncture into K2EDTA tubes at 5 minutes, 15 minutes, 30 minutes, 1 hour, 2 hours, 4 hours, 8 hours and 24 hours after dosing. The blood was centrifuged at 2000 g for 5 minutes at 4° C. to obtain plasma. The plasma was extracted with acetonitrile and the level of compound was analyzed by LC/MS/MS. The level of compound in plasma was calculated from a standard curve in mouse plasma. For brain levels, animals were sacrificed at 5 minutes, 15 minutes, 1 hour, 4 hours and 24 hours. Brains were removed and homogenized in acetonitrile and extracted. The level of compound in brain was calculated from a standard curve in mouse brain tissue. The IV clearance and area under the curve were calculated using WinNonLin software. The ratio of area under the curve for plasma and brain samples was calculated to produce the brain/plasma ratio.

[2] = Comparison of brain penetrance between quinolines and isoquinolines (IP dosing); assay type: in vivo; details: IP 5 mg/kg, C57Bl/6 mice; for Kp / AUC: mouse; for Kp: brain/plasma, read-out: ratio (AUC brain / AUC plasma); for AUC: plasma
Experimental: Comparator B (see Table 7) and Compound 2 were dosed in C57Bl/6 mice at 5 mg/kg in 10% DMAC/10% Solutol HS15/80% saline. Comparator A (see Table 7) was dosed at 5 mg/kg in 5% dextrose/water. All compounds were dosed IP. Mice were sacrificed at 5, 15, 30 minutes and 1, 2, 4, 8 and 24 hours after dosing. Plasma concentration of compound was determined at all time points by LC/MS/MS. Brain concentration was determined at 1, 4, 8 and 24 hours after dosing. The AUC was calculated using WinNonLin software. The results are shown in Table 7, where plasma AUC is expressed as hr*ng/mL and brain AUC is expressed as hr*ng/g.

[3] = molecular target: T1, HDAC2 (Homo sapiens, UniProt Q92769); assay: HDAC enzyme assay, HDAC2; assay type: biochemical; details: enzyme and compound incubated 24 hours at room temperature
T1 construct: purchased BPS Biosciences
Experimental: (§1) Compounds for testing were diluted in DMSO to 50 fold the final concentration and a ten point three fold dilution series was made. The compounds were diluted in assay buffer (50 mM HEPES, pH 7.4, 100 mM KCl, 0.001% Tween-20, 0.05% BSA, 20 μM TCEP) to 6 fold their final concentration. The HDAC enzymes (purchased from BPS Biosciences) were diluted to 1.5 fold their final concentration in assay buffer. The tripeptide substrate and trypsin at 0.05 μM final concentration were diluted in assay buffer at 6 fold their final concentration. The final enzyme concentrations used in these assays were 3.3 ng/ml (HDAC1), 0.2 ng/ml (HDAC2) and 0.08 ng/ml (HDAC3). The final substrate concentrations used were 16 μM (HDAC1), 10 μM (HDAC2) and 17 μM (HDAC3). Five μl of compound and 20 μl of enzyme were added to wells of a black, opaque 384 well plate in duplicate. Enzyme and compound were incubated together at room temperature for 24 hours. Five μl of substrate was added to each well, the plate was shaken for 60 seconds and placed into a Victor 2 microtiter plate reader. The development of fluorescence was monitored for 60 min and the linear rate of the reaction was calculated. The IC50 was determined using Graph Pad Prism by a four parameter curve fit.

[4] = molecular target: T2, HDAC3 (Homo sapiens, UniProt O15379); assay: HDAC enzyme assay, HDAC3; assay type: biochemical; details: enzyme and compound incubated 24 hours at room temperature
T2 construct: purchased BPS Biosciences
Experimental: as §1

[5] = molecular target: T3, HDAC1 (Homo sapiens, UniProt Q13547); assay: HDAC enzyme assay, HDAC1; assay type: biochemical; details: enzyme and compound incubated 24 hours at room temperature
T3 construct: purchased BPS Biosciences
Experimental: as §1

T3 sequence (Q13547 whole entry): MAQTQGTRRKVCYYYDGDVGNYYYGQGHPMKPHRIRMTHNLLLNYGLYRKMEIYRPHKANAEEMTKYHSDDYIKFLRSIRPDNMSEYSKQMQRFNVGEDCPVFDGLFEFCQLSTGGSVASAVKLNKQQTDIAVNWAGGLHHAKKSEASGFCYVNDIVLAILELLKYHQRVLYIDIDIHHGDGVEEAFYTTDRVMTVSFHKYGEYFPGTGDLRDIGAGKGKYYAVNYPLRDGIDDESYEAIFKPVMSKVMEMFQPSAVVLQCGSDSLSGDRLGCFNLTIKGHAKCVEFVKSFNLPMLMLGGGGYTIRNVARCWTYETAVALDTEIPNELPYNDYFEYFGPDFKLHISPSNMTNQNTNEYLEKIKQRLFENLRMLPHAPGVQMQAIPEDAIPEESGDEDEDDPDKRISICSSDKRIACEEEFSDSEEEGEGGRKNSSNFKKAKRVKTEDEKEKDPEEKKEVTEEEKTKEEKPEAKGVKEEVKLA
T1 sequence (Q92769 whole entry): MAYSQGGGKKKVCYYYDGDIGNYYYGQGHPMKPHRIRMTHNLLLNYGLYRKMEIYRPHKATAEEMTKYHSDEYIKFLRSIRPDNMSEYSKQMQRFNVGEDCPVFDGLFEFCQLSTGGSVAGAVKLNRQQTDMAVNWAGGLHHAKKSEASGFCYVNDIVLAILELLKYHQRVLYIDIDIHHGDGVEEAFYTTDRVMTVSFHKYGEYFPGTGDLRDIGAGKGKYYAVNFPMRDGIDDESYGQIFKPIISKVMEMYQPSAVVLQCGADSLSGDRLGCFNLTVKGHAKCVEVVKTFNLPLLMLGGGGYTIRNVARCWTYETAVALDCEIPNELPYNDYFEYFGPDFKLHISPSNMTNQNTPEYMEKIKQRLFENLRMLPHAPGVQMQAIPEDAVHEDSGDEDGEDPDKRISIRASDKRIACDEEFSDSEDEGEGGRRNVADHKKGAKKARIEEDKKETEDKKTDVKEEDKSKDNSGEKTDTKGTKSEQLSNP
T2 sequence (O15379 whole entry): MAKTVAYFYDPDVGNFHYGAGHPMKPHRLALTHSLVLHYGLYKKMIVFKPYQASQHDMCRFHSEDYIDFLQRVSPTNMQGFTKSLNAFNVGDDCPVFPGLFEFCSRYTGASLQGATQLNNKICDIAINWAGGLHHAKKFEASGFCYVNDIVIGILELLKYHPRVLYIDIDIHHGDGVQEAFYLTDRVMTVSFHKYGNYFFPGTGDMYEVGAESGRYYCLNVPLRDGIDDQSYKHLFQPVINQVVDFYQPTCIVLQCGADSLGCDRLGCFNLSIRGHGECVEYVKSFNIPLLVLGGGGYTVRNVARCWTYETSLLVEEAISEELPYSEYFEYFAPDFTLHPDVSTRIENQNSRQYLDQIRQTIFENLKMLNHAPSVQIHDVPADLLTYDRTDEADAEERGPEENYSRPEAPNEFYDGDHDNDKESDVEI
T2 sequence (Q9Y618 395-489 partner limits assumed): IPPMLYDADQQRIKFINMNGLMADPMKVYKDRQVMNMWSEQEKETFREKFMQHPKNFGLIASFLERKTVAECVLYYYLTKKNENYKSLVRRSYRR

brain penetrance (from brain/plasma AUC ratios) [1] | AUCINF ([1]; brain) | AUClast ([1]; brain) | Kp [1] | Cmax ([1]; brain) | Tmax ([1]; brain) | half-life ([1]; brain) | AUC brain [2] | Kp [2] | AUC [2] | IC50 [3] | IC50 [4] | IC50 [5] | AUC(0-inf) ([1]; plasma, PK cassette) | AUC(0-t) ([1]; plasma, PK cassette) | MRT inf ([1]; plasma, PK cassette) | clearance ([1]; plasma, PK cassette) | half-life ([1]; plasma, PK cassette) | Vd ([1]; plasma, PK cassette) | Structure (SMILES)
– | – | – | – | – | – | – | 655 ng·h/g | 0.06 | 10800 ng·h/mL | – | – | – | – | – | – | – | – | – | Nc1ccc(-c2cccs2)cc1NC(=O)c1cnc2cc(N3CCNCC3)ccc2c1 [Comparator B]
– | 390 ng·h/g | 319 ng·h/g | 0.1 | 145 ng/g | 0.25 h | 1.66 h | – | – | – | 8 nM | 182 nM | 6 nM | 3820 ng·h/mL | 3470 ng·h/mL | 8.72 h | 4.37 mL/min/kg | 7.71 h | 2.28 L/kg | Nc1ccc(-c2ccccc2)cc1NC(=O)c1cc2ccc(N3CCNCC3=O)cc2cn1 [Compound 4]
– | – | – | – | – | – | – | – | – | – | 19 nM | 121 nM | 5 nM | – | – | – | – | – | – | Nc1ccc(-c2cccs2)cc1NC(=O)c1cc2ccc(NC(=O)C3CCCN3)cc2cn1 (centres unmarked) [Compound 6]
– | – | – | – | – | – | – | – | – | – | 6 nM | 19 nM | 2 nM | – | – | – | – | – | – | CN(C)CCNc1ccc2cc(C(=O)Nc3cc(-c4cccs4)ccc3N)ncc2c1 [Compound 5]
– | – | – | – | – | – | – | – | – | – | 10 nM | 66 nM | 3 nM | – | – | – | – | – | – | CN1CCCC1C(=O)Nc1ccc2cc(C(=O)Nc3cc(-c4cccs4)ccc3N)ncc2c1 (centres unmarked) [Compound 7]

The next lines start with the compound.

Structure (SMILES) | brain penetrance (from brain/plasma AUC ratios) [1] | AUCINF ([1]; brain) | AUClast ([1]; brain) | Kp [1] | Cmax ([1]; brain) | Tmax ([1]; brain) | half-life ([1]; brain) | AUC brain [2] | Kp [2] | AUC [2] | IC50 [3] | IC50 [4] | IC50 [5] | AUC(0-inf) ([1]; plasma, PK cassette) | AUC(0-t) ([1]; plasma, PK cassette) | MRT inf ([1]; plasma, PK cassette) | clearance ([1]; plasma, PK cassette) | half-life ([1]; plasma, PK cassette) | Vd ([1]; plasma, PK cassette)
Nc1ccc(-c2ccc(F)cc2)cc1NC(=O)c1cc2ccc(N3CCNCC3)cc2cn1 [Compound 9] | highly brain penetrant | 9607 ng·h/g | 9444 ng·h/g | 10.3 | 1000 ng/g | 1 h | 4.4 h | – | – | – | – | – | – | – | – | – | – | – | –
Nc1ccc(-c2cccs2)cc1NC(=O)c1cc2ccc(N3CCNCC3)cc2cn1 [Compound 2] | highly brain penetrant | 13461 ng·h/g | 11474 ng·h/g | 8.33 | 783 ng/g | 1 h | 9.3 h | 23283 ng·h/g | 7.2 | 3230 ng·h/mL | 10 nM | 43 nM | 3 nM | 1620 ng·h/mL | 1560 ng·h/mL | 6.97 h | 10.3 mL/min/kg | 5.29 h | 4.31 L/kg
Nc1ccc(-c2ccncc2)cc1NC(=O)c1cc2ccc(N3CCNCC3)cc2cn1 [Compound 3] | – | 1439 ng·h/g | 1237 ng·h/g | 1.8 | 126 ng/g | 0.25 h | 8.63 h | – | – | – | 8 nM | 74 nM | 7 nM | 799 ng·h/mL | 770 ng·h/mL | 5.45 h | 20.8 mL/min/kg | 5.68 h | 6.82 L/kg
Nc1ccc(-c2cccs2)cc1NC(=O)c1ccc2nc(N3CCNCC3)ccc2c1 [Comparator A] | – | – | – | – | – | – | – | 2092 ng·h/g | 0.16 | 12900 ng·h/mL | – | – | – | – | – | – | – | – | –
